According to patent US6150379A, “Compounds and compositions as anticoagulants” (Axys Pharmaceuticals, Inc., priority 1998, dated 2000):

Target: human Factor Xa (Homo sapiens, UniProt P00742)
Test: In Vitro Enzyme Inhibitor Assay (Factor Xa inhibitory activity)
Assay type: biochemical
Details: human Factor Xa 0.5-5 nM, pH 8, 150 μM zinc chloride, 1 hour preincubation at room temperature, substrate MesOC-Norleu-Gly-Arg-pNA; read-out: Apparent inhibition constants (Ki)
Procedure: The following represents an assay for determining the Factor Xa inhibitory activity of compounds of Formula I.
Apparent inhibition constants (Ki) were calculated from the enzyme progress curves using standard mathematical models.

Chain of human Factor Xa (P00742 235-488 limits assumed): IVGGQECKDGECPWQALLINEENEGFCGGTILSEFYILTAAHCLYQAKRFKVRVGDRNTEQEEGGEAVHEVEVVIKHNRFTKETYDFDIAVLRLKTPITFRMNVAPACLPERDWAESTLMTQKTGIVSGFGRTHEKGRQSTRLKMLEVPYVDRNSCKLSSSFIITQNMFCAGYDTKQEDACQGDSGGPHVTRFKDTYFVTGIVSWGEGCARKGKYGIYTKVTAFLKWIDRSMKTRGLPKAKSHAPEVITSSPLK
Chain of human Factor Xa (P00742 41-179 partner limits assumed): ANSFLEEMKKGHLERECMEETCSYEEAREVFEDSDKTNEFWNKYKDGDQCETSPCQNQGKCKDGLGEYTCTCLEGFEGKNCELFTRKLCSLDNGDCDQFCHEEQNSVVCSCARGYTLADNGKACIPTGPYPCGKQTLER

Compound | Ki [nM]
CCOC(=O)Cn1ccnc1-c1nc2cc(C(=N)N)ccc2[nH]1 [Compound 33, ethyl 2-(5-amidino-1H-benzimidazol-2-yl)imidazol-1-ylacetate] | 5
6-(5-amidino-1H-benzimidazol-2-yl)-N-[2-(4-methylphenyl)ethyl]pyridine-5-carboxamide [Compound 86] | 8
N=C(N)c1ccc2[nH]c(-c3nccn3CCCC(=O)N3CCOCC3)nc2c1 [Compound 98, 2-[1-(3-morpholin-4-ylcarbonylpropyl)-1H-imidazol-2-yl]-1H-benzimidazole-5-carboxamidine] | 2
Cc1c(-c2nc3cc(C(=N)N)ccc3[nH]2)ncn1Cc1ccccc1 [Compound 16, 2-(5-methyl-1-benzyl-1H-imidazol-4-yl)-1H-benzimidazole-5-carboxamidine] | 8
CCCn1cnc(-c2nc3cc(C(=N)N)ccc3[nH]2)c1C [Compound 20, 2-(5-methyl-1-propyl-1H-imidazol-4-yl)-1H-benzimidazole-5-carboxamidine] | 7
6-(5-amidino-1H-benzimidazol-2-yl)-N-(2-morpholin-4-ylethyl)pyridine-5-carboxamide [Compound 69] | 40
COc1ccc(CCNC(=O)c2ccnc(-c3nc4cc(C(=N)N)ccc4[nH]3)c2)cc1 [Compound 50, 6-(5-amidino-1H-benzimidazol-2-yl)-N-[2-(4-methoxyphenyl)ethyl]pyridine-4-carboxamide] | 10
6-(5-amidino-1H-benzimidazol-2-yl)-N-[2-(3,4-dichlorophenyl)ethyl]pyridine- 5-carboxamide [Compound 88] | 6
N=C(N)c1ccc2[nH]c(-c3nccn3CC(=O)NCCc3ccc(Cl)cc3)nc2c1 [Compound 90, 2-(5-amidino-1H-benzimidazol-2-yl)imidazol-1-yl-N-[2-(4-chlorophenyl)ethyl]acetamide] | 3
N=C(N)c1ccc2[nH]c(-c3nccn3CC(=O)NCCc3cccc4ccccc34)nc2c1 [Compound 96, 2-(5-amidino-1H-benzimidazol-2-yl)imidazol-1-yl-N-(2-naphth-1-ylethyl)acetamide] | 30
CCCCn1ccnc1-c1nc2cc(C(=N)N)ccc2[nH]1 [Compound 27, 2-(1-butyl-1H-imidazol-2-yl)-1H-benzimidazole-5-carboxamidine] | 5
N=C(N)c1ccc2[nH]c(-c3nccn3Cc3ccccc3)nc2c1 [Compound 17, 2-(1-benzyl-1H-imidazol-2-yl)-1H-benzimidazole-5-carboxamidine] | 4
N=C(N)c1ccc2[nH]c(-c3nccn3CC(=O)NCCc3ccc(O)cc3)nc2c1 [Compound 95, 2-(5-amidino-1H-benzimidazol-2-yl)imidazol-1-yl-N-[2-(4-hydroxyphenyl)ethyl]acetamide] | 6
Cc1c(-c2nc3cc(C(=N)N)ccc3[nH]2)ncn1CCCN1C(=O)c2ccccc2C1=O [Compound 36, 2-{1-[3-(1,3-dioxo-1,3-dihydroisoindol-2-yl)propyl]-5-methyl-1H-imidazol-4-yl}-1H-benzimidazole-5-carboxamidine] | 5
COc1ccc(CCNC(=O)c2ccc(-c3nc4cc(C(=N)N)ccc4[nH]3)nc2)cc1Br [Compound 57] | 2
CCCCc1ccc(-c2nc3cc(C(=N)N)ccc3[nH]2)nc1 [Compound 1] | 3
N=C(N)c1ccc2[nH]c(-c3nccn3CCCC(=O)NCCc3ccc(Cl)cc3)nc2c1 [Compound 100, 4-[2-(5-amidino-1H-benzimidazol-2-yl)imidazol-1-yl]-N-[2-(4-chlorophenyl)ethyl]butyramide] | 6
N=C(N)c1ccc2[nH]c(-c3nccn3CCCCN3C(=O)c4ccccc4C3=O)nc2c1 [Compound 39, 2-{1-[4-(1,3-dioxo-1,3-dihydroisoindol-2-yl)butyl]-1H-imidazol-2-yl}-1H-benzimidazole-5-carboxamidine] | 6
